The values below come from patent US5665700A, “Pharmaceutical formulations” (Skua Investments Limited, priority 1994, dated 1997).

The test system of series [1] is reticulocyte counts. Description: Oral EPO study in normal male volunteers: reticulocyte counts. The series is classed as in vivo, human. Conditions: Study Day 4, 10 IU/Kg intravenous infusion. The method, then:
(§1) Eight healthy, normal male volunteers participated in this study. After overnight fasting, on Study Day 1 the subjects received medication as follows:
(§2) Blood samples were collected at time 0, 0.5, 1, 2, 3, 4, 6, 10 and 14 hours after the medication; reticulocyte counts (%) were made and plasma EPO levels were measured by radioimmunoassay.
(§3) On Day 2 and Day 3, each subject was given the assigned coded study medications at 08:00 a.m., 14:00 p.m. and 22:00 p.m. and, after an overnight fast, on Study Day 4, each subject was examined again after having been given the study medications as above.

A short description of series [2]: Oral EPO study in normal male volunteers: plasma EPO levels by radioimmunoassay. It counts as in vivo, human. The following applies: Study Day 1, 10 IU/kg intravenous infusion. The procedure: as §1, §2, §3
The conditions of series [3]: in vivo; cited from earlier work.

With Erythropoietin [EPO], the Reticulocyte counts result in series [1] was “increased”. Further, the “plasma RIA-measured EPO levels” value in series [2] was “markedly increased”.
Turning to POE(2) cetyl ether, the LD50 – broadly, the dose at which mortality reaches 50% – in series [3] is 22000 mg/kg.
In the case of POE(2) oleyl ether, the LD50 in series [3] is 25000 mg/kg.
Turning to POE(2) stearyl ether, the LD50 in series [3] was more than 25000 mg/kg.
For the substance POE(4) lauryl ether, in series [3], the LD50 was 9000 mg/kg.
Consider POE(4) sorbitan monostearate, for which the 50% lethal dose (LD50) in series [3] was more than 40000 mg/kg.
For POE(5) sorbitan monooleate, the LD50 in series [3] is more than 37000 mg/kg.
With POE(23) lauryl ether, the LD50 in series [3] was 9000 mg/kg.
For the substance Sorbitan monolaurate, the LD50 in series [3] was 41000 mg/kg.
Sorbitan monooleate: the LD50 in series [3] is more than 40000 mg/kg.
Sorbitan monopalmitate: the LD50 in series [3] was more than 16000 mg/kg.
For the substance Sorbitan monostearate, the median lethal dose (LD50) in series [3] was 31000 mg/kg.
As for Sorbitan trioleate, in series [3], the LD50 is more than 40000 mg/kg.
Sorbitan tristearate: the LD50 in series [3] was more than 16000 mg/kg.
